# Source: patent US10709706B2, “Nuclear transport modulators and uses thereof” (Karyopharm Therapeutics Inc., priority 2015, dated 2020)
# Assays:
# Type in all cases: cell-based
# Z138 cells = test: MTT cell proliferation assay, Z138 cells; conditions: Homo sapiens, Z-138, approximately 64-72 hours, 1 nM to 30 μM
# Procedure: (§1) The MTT cell proliferation assay was used to study the cytotoxic properties of the compounds. The assay was performed according to the method described by Roche Molecular Biochemicals, with minor modifications. The assay is based on the cleavage of the tetrazolium salt, MTT, in the presence of an electron-coupling reagent. The water-insoluble formazan salt produced must be solubilized in an additional step. Cells grown in a 96-well tissue culture plate were incubated with the MTT solution for approximately 4 hours. After this incubation period, a water-insoluble formazan dye formed. After solubilization, the formazan dye was quantitated using a scanning multi-well spectrophotometer (ELISA reader). […] The cells were seeded at 5,000-10,000 cells in each well of 96-well plate in 100 μL of fresh culture medium and were allowed to attach overnight. The stock solutions of the compounds were diluted in 100 μL cell culture medium to obtain eight concentrations of each test compound, ranging from 1 nM to 30 μM. […] All optical densities were measured at 490 nm using a Vmax Kinetic Microplate Reader (Molecular Devices). In most cases, the assay was performed in duplicate and the results were presented as a mean percent inhibition to the negative control±SE. The following formula was used to calculate the percent of inhibition: Inhibition (%)=(1−(ODo/OD))×100.
# (§2) The compounds were tested against Z138, MM1S and 3T3 cells. The Z138 cell line is a mature B-cell acute lymphoblastic leukemia cell line derived from a patient with chronic lymphocytic leukemia. The MM1S cell line was established from the peripheral blood of a human multiple myeloma patient. 3T3 cells are standard fibroblast cells; they were originally isolated from Swiss mouse embryo tissue.
# MM1S cells = test: MTT cell proliferation assay, MM1S cells; conditions: Homo sapiens, MM1.S, MM1S multiple myeloma cells, approximately 64-72 hours, 1 nM to 30 μM
# Procedure: as §1, §2
# 3T3 cells = test: MTT cell proliferation assay, 3T3 cells; conditions: Mus musculus, NIH3T3, 3T3 fibroblast cells, approximately 64-72 hours, 1 nM to 30 μM
# Procedure: as §1, §2
Structure (SMILES),IC50 (MM1S cells) [µM],IC50 (Z138 cells) [µM],IC50 (3T3 cells) [µM]
"NC(=O)/C(=C/c1ccnc(-c2cc(C(F)(F)F)cc(C(F)(F)F)c2)n1)c1cc2ccccc2o1 [Compound 136, (E)-2-(benzofuran-2-yl)-3-(2-(3,5-bis(trifluoromethyl)phenyl)pyrimidin-4-yl)acrylamide]",0.1 to 5,0.1 to 5,5 to 30
"NC(=O)/C(=C/c1ccnc(-c2cc(C(F)(F)F)cc(C(F)(F)F)c2)n1)c1ccc(S(=O)(=O)N2CCCCC2)cc1 [Compound 156, (E)-3-(2-(3,5-bis(trifluoromethyl)phenyl)pyrimidin-4-yl)-2-(4-(piperidin-1-ylsulfonyl)phenyl)acrylamide]",> 30,> 30,> 30
"NC(=O)/C(=C/c1ccnc(-c2cc(C(F)(F)F)cc(C(F)(F)F)c2)n1)c1ccc(S(=O)(=O)N2CCC(F)(F)CC2)cc1 [Compound 159, (E)-3-(2-(3,5-bis(trifluoromethyl)phenyl)pyrimidin-4-yl)-2-(4-((4,4-difluoropiperidin-1-yl)sulfonyl)phenyl)acrylamide]",5 to 30,0.1 to 5,> 30
"NC(=O)/C(=C/c1ccnc(-c2cc(C(F)(F)F)cc(C(F)(F)F)c2)n1)c1ccc(S(=O)(=O)N2CC(F)(F)C2)cc1 [Compound 130, (E)-3-(2-(3,5-bis(trifluoromethyl)phenyl)pyrimidin-4-yl)-2-(4-((3,3-difluoroazetidin-1-yl)sulfonyl)phenyl)acrylamide]",5 to 30,> 30,> 30
"NC(=O)/C(=C/c1ccnc(-c2cc(C(F)(F)F)cc(C(F)(F)F)c2)n1)c1ccc(S(=O)(=O)N2CCOCC2)cc1 [Compound 151, (E)-3-(2-(3,5-bis(trifluoromethyl)phenyl)pyrimidin-4-yl)-2-(4-(morpholinosulfonyl)phenyl)acrylamide]",0.1 to 5,5 to 30,> 30
"NC(=O)/C(=C/c1ccnc(-c2cc(C(F)(F)F)cc(C(F)(F)F)c2)n1)c1cccc(S(=O)(=O)N2CCC2)c1 [Compound 166, (E)-2-(3-(azetidin-1-ylsulfonyl)phenyl)-3-(2-(3,5-bis(trifluoromethyl)phenyl)pyrimidin-4-yl)acrylamide]",> 30,> 30,> 30
"NC(=O)/C(=C/c1ccnc(-c2cc(C(F)(F)F)cc(C(F)(F)F)c2)n1)c1cc2ccccc2s1 [Compound 137, (Z)-2-(benzo[b]thiophen-2-yl)-3-(2-(3,5-bis(trifluoromethyl)phenyl)pyrimidin-4-yl)acrylamide]",0.1 to 5,0.1 to 5,> 30
"NC(=O)/C(=C/c1ccnc(-c2cc(C(F)(F)F)cc(C(F)(F)F)c2)n1)c1ccc(S(=O)(=O)C2CC2)cc1 [Compound 122, (E)-3-(2-(3,5-bis(trifluoromethyl)phenyl)pyrimidin-4-yl)-2-(4-(cyclopropylsulfonyl)phenyl)acrylamide]",5 to 30,0.1 to 5,> 30
"NC(=O)/C(=C/c1ccnc(-c2cc(C(F)(F)F)cc(C(F)(F)F)c2)n1)c1cccc(S(=O)(=O)N2CCC(C(F)(F)F)CC2)c1 [Compound 160, (E)-3-(2-(3,5-bis(trifluoromethyl)phenyl)pyrimidin-4-yl)-2-(3-((4-(trifluoromethyl)piperidin-1-yl)sulfonyl)phenyl)acrylamide]",> 30,> 30,> 30
"NC(=O)/C(=C/c1ccnc(-c2cc(C(F)(F)F)cc(C(F)(F)F)c2)n1)c1cccc(S(=O)(=O)N2CCCCC2)c1 [Compound 167, (E)-3-(2-(3,5-bis(trifluoromethyl)phenyl)pyrimidin-4-yl)-2-(3-(piperidin-1-ylsulfonyl)phenyl)acrylamide]",> 30,> 30,> 30

# The next lines start with results.
IC50 (MM1S cells) [µM],Structure (SMILES),IC50 (Z138 cells) [µM],IC50 (3T3 cells) [µM]
> 30,"NC(=O)/C(=C/c1cncc(-c2cc(C(F)(F)F)cc(C(F)(F)F)c2)n1)c1cncnc1 [Compound 114, (E)-3-(6-(3,5-bis(trifluoromethyl)phenyl)pyrazin-2-yl)-2-(pyrimidin-5-yl)acrylamide]",> 30,> 30
> 30,"O=C(O)/C(=C/c1cncc(-c2cc(C(F)(F)F)cc(C(F)(F)F)c2)n1)c1cncnc1 [Compound 117, (E)-3-(6-(3,5-bis(trifluoromethyl)phenyl)pyrazin-2-yl)-2-(pyrimidin-5-yl)acrylic acid]",> 30,> 30
0.1 to 5,"N#Cc1cncc(/C(=C\c2ccnc(-c3cc(C(F)(F)F)cc(C(F)(F)F)c3)n2)C(N)=O)c1 [Compound 119, (E)-3-(2-(3,5-bis(trifluoromethyl)phenyl)pyrimidin-4-yl)-2-(5-cyanopyridin-3-yl)acrylamide]",0.1 to 5,> 30
> 30,"NC(=O)/C(=C/c1ccnc(-c2cc(C(F)(F)F)cc(C(F)(F)F)c2)n1)c1ccc(-c2cccnc2)cc1 [Compound 142, (E)-3-(2-(3,5-bis(trifluoromethyl)phenyl)pyrimidin-4-yl)-2-(4-(pyridin-3-yl)phenyl)acrylamide]",> 30,> 30
< 0.1,"N#Cc1ncc(/C(=C\c2ccnc(-c3cc(C(F)(F)F)cc(C(F)(F)F)c3)n2)C(N)=O)cn1 [Compound 125, (E)-3-(2-(3,5-bis(trifluoromethyl)phenyl)pyrimidin-4-yl)-2-(2-cyanopyrimidin-5-yl)acrylamide]",< 0.1,> 30
5 to 30,"O=C(O)/C(=C/c1ccnc(-c2cc(C(F)(F)F)cc(C(F)(F)F)c2)n1)c1cncnc1 [Compound 111, (E)-3-(2-(3,5-bis(trifluoromethyl)phenyl)pyrimidin-4-yl)-2-(pyrimidin-5-yl)acrylic acid]",> 30,> 30
> 30,"NC(=O)/C(=C/c1ccnc(-c2cc(C(F)(F)F)cc(C(F)(F)F)c2)n1)c1ccc(F)cc1F [Compound 132, (E)-3-(2-(3,5-bis(trifluoromethyl)phenyl)pyrimidin-4-yl)-2-(2,4-difluorophenyl)acrylamide]",> 30,> 30
> 30,"NC(=O)/C(=C/c1ccnc(-c2cc(C(F)(F)F)cc(C(F)(F)F)c2)n1)c1csc2ccccc12 [Compound 123, (E)-2-(benzo[b]thiophen-3-yl)-3-(2-(3,5-bis(trifluoromethyl)phenyl)pyrimidin-4-yl)acrylamide]",> 30,> 30
> 30,"Cc1ccc(F)cc1/C(=C\c1ccnc(-c2cc(C(F)(F)F)cc(C(F)(F)F)c2)n1)C(N)=O [Compound 161, (E)-3-(2-(3,5-bis(trifluoromethyl)phenyl)pyrimidin-4-yl)-2-(5-fluoro-2-methylphenyl)acrylamide]",> 30,> 30
> 30,"NC(=O)/C(=C\c1cncc(-c2cc(C(F)(F)F)cc(C(F)(F)F)c2)n1)c1cncnc1 [Compound 104, (Z)-3-(6-(3,5-bis(trifluoromethyl)phenyl)pyrazin-2-yl)-2-(pyrimidin-5-yl)acrylamide]",> 30,> 30
> 30,"NC(=O)/C(=C/c1ccnc(-c2cc(C(F)(F)F)cc(C(F)(F)F)c2)n1)c1cccc(Cl)c1Cl [Compound 141, (E)-3-(2-(3,5-bis(trifluoromethyl)phenyl)pyrimidin-4-yl)-2-(2,3-dichlorophenyl)acrylamide]",> 30,> 30
